Reference: patent US20150011393A1, “METHOD FOR INTRODUCING FLORIGEN” (priority 2012, published 2015)

Experiments:
[1] = test system: Rice radicles, cultured rice cells (rice protoplasts), tobacco leaves, and Arabidopsis leaves; test: Quantitative efficiency of introduction of GFP by eight cell-penetrating peptides in four tissues; assay type: cell-based; details: rank among eight cell-penetrating peptides over four tissues (32 treatment groups)
Method: Eight kinds of cell-penetrating peptides shown in Table 1 above and GFP were separately mixed in PBS (137 mM NaCl, 2.7 mM KCl, 10 mM Na2HPO4, 1.76 mM KH2PO4) (pH 7.4) so as to achieve a final concentration of 50 μM, and rice radicles were immersed in the mixtures. The eight kinds of cell-penetrating peptides are typical peptides selected from arginine-rich peptides, amphiphilic peptides, and peptides each having an RXLR sequence, and were prepared by chemical synthesis.
The immersion treatment was carried out for 16 hours at room temperature, followed by low-temperature treatment at 4° C. for 4 hours. The samples were washed until fluorescence was not observed in a negative control group treated with GFP alone, and cells were counted under a fluorescence stereomicroscope to calculate ratios of fluorescent cells.
(2) The efficiency of introduction of GFP by the eight kinds of cell-penetrating peptides was examined quantitatively in the same manner as in (1) above. Rice radicles (FIG. 2a), cultured rice cells (rice protoplasts) (FIG. 2b), tobacco leaves (FIG. 2c), and Arabidopsis leaves (FIG. 2d) were used as tissues to be examined. A total of 32 treatment groups were evaluated.

[2] = test system: rice root epidermal cells; test: Effect of molar ratio of cell-penetrating peptide to protein on efficiency of introduction of GFP; assay type: cell-based
Method: (3) The effect of the molar ratios of the cell-penetrating peptides to the protein on the efficiency of introduction of the protein was examined. The molar ratios of the cell-penetrating peptides (Avr1b and R9) to the protein were changed to 0.01, 0.1, 1, and 10, and the efficiency of introduction of GFP into rice root epidermal cells was evaluated.

Arabidopsis = test: Flowering-promoting effect in Arabidopsis plant body after direct introduction of florigen; assay type: in vivo
Method: A mixed solution prepared by mixing the florigen mHd3a-1 and the cell-penetrating peptide R9 in ten-times diluted PBS in the same manner as in Example 3 was used for treatment of seedling of Arabidopsis at the time of cotyledon expansion about three days after seeding. It should be noted that the shoot apices in seedling of Arabidopsis was exposed at the time of cotyledon expansion. The treatment was carried out at room temperature for 2 days. After that, the mixed solution was washed, and the plants were cultivated on the MS medium under a short-day condition (day length: 10 hours) for from 30 to 40 days to examine the timing of the flowering. The examination condition of the start of the flowering was defined as the start of bolting or a state where differentiation of flower buds was visually observed, and whether the flowering was early or late was evaluated based on the number of rosette leaves at the time when the state described above was achieved. In the case of Arabidopsis, rosette leaves are usually extracted, and the extraction of the rosette leaves is stopped when the flowering is started. When the flowering is started in the early stage, the number of the leaves is small because only a small number of the rosette leaves can be extracted, while when it takes a long time before the flowering is started, the number of the leaves is large because many rosette leaves can be extracted.
FIG. 12 and FIG. 13 show the results. FIG. 12 are photographs taken on day 14 and day 21, when the cultivation start date under the short-day condition is defined as day 0. The enlarged view is one obtained by enlarging the area enclosed by a dashed line in the photograph of a flower bud of an individual treated with the mixed solution of mHd3a-1 and R9, which was taken on day 21. In addition, the numbers in the graph of FIG. 13 represent numbers of individuals that achieved the flowering at each number of leaves. […]

[3] = Search for florigen capable of high level expression (soluble fractions); details: recombinant expression of mutated Hd3a
Excerpt: FIG. 5 is a photograph showing mHd3a-1 separated and detected by SDS-PAGE through a conventional method.

[4] = test system: flower-bud formation marker gene OsMADS15; test: Florigen function in transient expression system for protoplasts (with OsFD1), RT-PCR; assay type: cell-based; details: transiently expressed with OsFD1 in protoplasts; compared among five mutated Hd3a's
Excerpt: (2) The florigen functions were examined for mutated Hd3a partial peptides of mHd3a-2F (full-length, having C43L, C109S, and C166S amino acid substitutions) and m-Hd3a-3F (full-length, having K31A, Y136A, and W140A amino acid substitutions) in addition to the mutated Hd3a's examined in (1) above, i.e., mHd3a-1, mHd3a-2T, and mHd3a-3T. The as say system used is a transient expression system for protoplasts. When the mutated Hd3a and a transcription factor OsFD1 are transiently expressed in protoplasts in this system, a flower-bud formation marker gene OsMADS15 is transcriptionally activated if the Hd3a is functional. The transient expression system for protoplasts was constructed according to the method described in Non Patent Literature 2. In addition, the expression of the OsMADS15 gene was examined by RT-PCR method according to the method described in Non Patent Literature 2.

rice shoot apical tissue = test: Introduction of FITC-labeled florigen into cell of rice shoot apical tissue; assay type: cell-based; details: florigen 50 μM, R9 500 μM in PBS (pH 7.4)
Method: (§1) The mHd3a-1 prepared by high level expression in Example 2 was labeled with a fluorochrome FITC. Subsequently, a rice shoot apical tissue was exposed under a stereomicroscope, and the cell-penetrating peptide and the florigen were mixed and used for treatment of the plant tissue in the same manner as in Example 1. A mixed solution was prepared by adding the florigen at a final concentration of 50 μM and the cell-penetrating peptide R9 at a final concentration of 500 μM in PBS (pH 7.4). The mixed solution was added dropwise to the exposed shoot apical tissue to bring the mixed solution into contact with the tissue. The tissue was treated for 16 hours at room temperature.

[5] = test system: shoot apical tissues of corn; test: Introduction of florigen into cells of shoot apical tissue of corn; assay type: cell-based; details: mixed solution with R9 as in Example 3
Method: as §1
(§2) In the same manner as in Example 3, the mixed solution of the cell-penetrating peptide and the florigen was added dropwise to shoot apical tissues of corn and Arabidopsis to treat the tissues.

[6] = test system: shoot apical tissues of Arabidopsis; test: Introduction of florigen into cells of shoot apical tissue of Arabidopsis; assay type: cell-based; details: mixed solution with R9 as in Example 3
Method: as §1, §2

[7] = test system: flower-bud formation marker gene (OsMADS15 gene); test: Expression of flower-bud formation marker gene after direct introduction of florigen, wild-type rice, real-time quantitative RT-PCR; assay type: in vivo; details: wild-type rice shoot apical tissue; introduced with R9 as in Example 3
Excerpt: (§3) (1) A rice shoot apical tissue into which the florigen was introduced was isolated in the same manner as in Example 3. RNA was extracted from the rice shoot apical tissue by a conventional method, and expression of a flower-bud formation marker gene (OsMADS15 gene) was examined by real-time quantitative RT-PCR (see Non Patent Literature 2 for the method).

[8] = test system: flower-bud formation marker gene; test: Expression of flower-bud formation marker gene after direct introduction of florigen, rice with all florigens inactivated (Hd3a-RFT1 double RNAi); assay type: in vivo; details: introduced with R9 as in Example 3
Excerpt: as §3
(2) Further, rice in which all florigens were inactivated (Hd3a-RFT1 double RNAi) (Komiya et al. (2008) Development 135:767-774) was subjected to the same experiment as in (1).

[9] = test system: APETALA1 (AP1) gene, FRUITFULL (FUL) gene, and SQUAMOSA PROMOTER BINDING-LIKES (SPL3) gene; test: Induction of expression of flowering-responsive genes in Arabidopsis after direct introduction of florigen, real-time quantitative RT-PCR; assay type: in vivo; details: shoot apical tissue after 2 weeks cultivation
Excerpt: The florigen was introduced directly into Arabidopsis in the same manner as in Example 6, and then the plants were cultivated for 2 weeks, followed by collection of a shoot apical tissue from each individual. RNA was extracted from the shoot apical tissue collected from each individual, and cDNA was synthesized based on a reverse transcription reaction. After that, the expression levels of APETALA1 (AP1) gene, FRUITFULL (FUL) gene, and SQUAMOSA PROMOTER BINDING-LIKES (SPL3) gene were examined by real-time quantitative RT-PCR (see Yamaguchi et al. Dev. Cell 17:268-278 (2009)).

R9: cell-penetrating peptide RRRRRRRRR (SEQ ID NO: 7), arginine-rich, artificially designed sequence (Membrane-permeable peptide R9)
comprehensive efficiency of introduction of GFP [1]: second highest
change of introduction efficiency as molar ratio increased in the order of 0.01, 0.1, 1, and 10 ([2]; mixed solution of cell-penetrating peptide and GFP): the introduction efficiency increased
increase of efficiency of introduction of GFP, molar ratio 10 versus molar ratio 1 ([2]; molar ratio of cell-penetrating peptide to protein 10 compared to 1): 2.5 times
start of the flowering when the number of the leaves was 14 or less (almost all the plants) (Arabidopsis; R9 alone, short-day condition): did not start the flowering

Tat: cell-penetrating peptide YGRKKRRQRRR (SEQ ID NO: 2), arginine-rich, derived from Tat protein of HIV virus (Membrane-permeable peptide Tat)
comprehensive efficiency of introduction of GFP [1]: second highest

mHR: mutated Hd3a incapable of being bound to a receptor (Hd3a R64D F103A R132D), used mixed with R9
effect of promoting the start of the flowering (Arabidopsis; used instead of mHd3a-1 in mixed solution with R9, short-day condition): not observed

mHd3a-1: mutated rice Hd3a, full-length, having K31A and E57A amino acid substitutions
high level expression and soluble fractions [3]: capable of high level expression and providing soluble fractions
activation of transcription of the OsMADS15 gene [4]: most desirably activated
localization in the cell of the rice shoot apical tissue (rice shoot apical tissue; 16 hours): localized accurately in the nucleus
introduction into the rice shoot apical tissue (rice shoot apical tissue; 16 hours at room temperature): introduced efficiently
introduction into the shoot apical tissue of corn [5]: introduced efficiently
localization in the cell of the shoot apical tissue of corn [5]: localized accurately in the nucleus
introduction into the shoot apical tissue of Arabidopsis [6]: introduced efficiently
localization in the cell of the shoot apical tissue of Arabidopsis [6]: localized accurately in the nucleus
expression of the flower-bud formation marker gene (OsMADS15 gene) [7]: can activate expression
expression of the flower-bud formation marker gene [8]: could activate the expression
plants able to start the flowering when the number of the leaves was 14 or less (Arabidopsis; Arabidopsis seedlings treated 2 days with mixed solution with R9 in ten-times diluted PBS, short-day condition 30 to 40 days): about 30%
individuals treated in which induction of the expression was observed [9]: about 30%
expression of AP1, FUL and SPL3 genes ([9]; eIF4a internal standard): activated the expression of the three genes

mHd3a-2T: partial peptide of Hd3a, amino acids at positions from 6 to 170, having C43L, C109S, and C166S substitutions
high level expression and soluble fractions [3]: capable of high level expression and providing soluble fractions

mHd3a-3T: partial peptide of Hd3a, amino acids at positions from 8 to 170, having K31A, Y136A, and W140A substitutions
high level expression and soluble fractions [3]: capable of high level expression and providing soluble fractions
